{"source": "PubChem BioAssay AID220", "about": "(DTP/NCI, 2004)", "tested_on": "CD8F1 mice, subcutaneous mammary adenocarcinoma, T/C%", "assay": "NCI In Vivo Anticancer Drug Screen. Data for tumor model Mammary Adenocarcinoma CD8F1 (subcutaneous) in CD8F1", "conditions": "higher = larger tumour", "summary_of_the_method": "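Transplantable tumors were established in mice, animals were dosed with compound or vehicle, and survival or tumor size was then measured in both groups. The treated result was divided by the control result.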", "key": {"[1]": {"conditions": "endpoint: median tumor weight (est.), dose: 12.5 mg/kg/injection, schedule: Q07DX005 (ip), vehicle: Klucel (hydroxypropylcellulose) (HPC)"}, "[2]": {"conditions": "endpoint: median tumor weight (est.), dose: 50.0 mg/kg/injection, schedule: Q07DX005 (ip), vehicle: Klucel (hydroxypropylcellulose) (HPC)"}, "[3]": {"conditions": "endpoint: median tumor weight (est.), dose: 100.0 mg/kg/injection, schedule: Q07DX005 (ip), vehicle: Klucel (hydroxypropylcellulose) (HPC)"}, "[4]": {"conditions": "endpoint: median tumor weight (est.), dose: 200.0 mg/kg/injection, schedule: Q07DX005 (ip), vehicle: Klucel (hydroxypropylcellulose) (HPC)"}, "[5]": {"conditions": "endpoint: median tumor weight (est.), dose: 400.0 mg/kg/injection, schedule: Q07DX005 (ip), vehicle: Klucel (hydroxypropylcellulose) (HPC)"}}, "note": "Several values for one entry are separate records, joined by “and”; a condition that tells them apart may be missing. Equal values may be shown once. Results filed as inconclusive are left out.", "data": [{"smiles": "CCCCOCN(COCCCC)C12CC3CC(CC(C3)C1)C2", "values": [{"measurement": "T/C", "setting": "endpoint: median tumor weight change, dose: 62.5 mg/kg/injection, schedule: Q01DX001 (ip), vehicle: saline with Tween-80", "result": "122 % of control"}, {"measurement": "T/C", "setting": "endpoint: median tumor weight change, dose: 125.0 mg/kg/injection, schedule: Q01DX001 (ip), vehicle: saline with Tween-80", "result": "79 % of control"}, {"measurement": "T/C", "setting": "endpoint: median tumor weight change, dose: 250.0 mg/kg/injection, schedule: Q01DX001 (ip), vehicle: saline with Tween-80", "result": "61 % of control"}]}, {"smiles": "O.O.[NH-]C1CCCCC1[NH-].[Pt+2]", "note": "(stereo not given)", "values": [{"measurement": "T/C", "setting": "endpoint: median tumor weight (est.), dose: 0.62 mg/kg/injection, schedule: Q07DX005 (ip), vehicle: dextrose", "result": "50 % of control"}, {"measurement": "T/C", "setting": "endpoint: median tumor weight (est.), dose: 20.0 mg/kg/injection, schedule: Q07DX005 (ip), vehicle: dextrose", "result": "69 % of control"}, {"measurement": "T/C", "setting": "endpoint: median tumor weight (est.), dose: 40.0 mg/kg/injection, schedule: Q07DX005 (ip), vehicle: dextrose", "result": "39 % of control"}]}, {"smiles": "C1OC1CO[C@@H]1CO[C@H]2[C@@H]1OC[C@H]2OCC1CO1", "note": "(stereo not given in full)", "values": [{"measurement": "T/C", "setting": "[1]", "result": "44 % of control"}, {"measurement": "T/C", "setting": "endpoint: median tumor weight (est.), dose: 25.0 mg/kg/injection, schedule: Q07DX005 (ip), vehicle: Klucel (hydroxypropylcellulose) (HPC)", "result": "53 % of control"}, {"measurement": "T/C", "setting": "endpoint: median tumor weight (est.), dose: 25.0 mg/kg/injection, schedule: Q07DX005 (ip), vehicle: suspension in saline", "result": "108 % of control"}, {"measurement": "T/C", "setting": "[2]", "result": "84 % of control"}, {"measurement": "T/C", "setting": "endpoint: median tumor weight (est.), dose: 50.0 mg/kg/injection, schedule: Q07DX005 (ip), vehicle: suspension in saline", "result": "64 % of control"}, {"measurement": "T/C", "setting": "[3]", "result": "108 % of control"}, {"measurement": "T/C", "setting": "endpoint: median tumor weight (est.), dose: 100.0 mg/kg/injection, schedule: Q07DX005 (ip), vehicle: suspension in saline", "result": "48 % of control"}, {"measurement": "T/C", "setting": "[4]", "result": "57 % of control"}, {"measurement": "T/C", "setting": "endpoint: median tumor weight (est.), dose: 200.0 mg/kg/injection, schedule: Q07DX005 (ip), vehicle: suspension in saline", "result": "51 % of control"}, {"measurement": "T/C", "setting": "[5]", "result": "16 % of control"}, {"measurement": "T/C", "setting": "endpoint: median tumor weight (est.), dose: 400.0 mg/kg/injection, schedule: Q07DX005 (ip), vehicle: suspension in saline", "result": "9 % of control"}]}, {"smiles": "Cc1ncc([N+](=O)[O-])n1CCSC(N)=O", "values": [{"measurement": "T/C", "setting": "endpoint: median tumor weight (est.), dose: 12.5 mg/kg/injection, schedule: Q07DX005 (ip), vehicle: saline with Tween-80", "result": "124 % of control and 99 % of control"}, {"measurement": "T/C", "setting": "endpoint: median tumor weight (est.), dose: 50.0 mg/kg/injection, schedule: Q07DX005 (ip), vehicle: saline with Tween-80", "result": "123 % of control"}, {"measurement": "T/C", "setting": "endpoint: median tumor weight (est.), dose: 100.0 mg/kg/injection, schedule: Q07DX005 (ip), vehicle: saline with Tween-80", "result": "96 % of control"}, {"measurement": "T/C", "setting": "endpoint: median tumor weight (est.), dose: 400.0 mg/kg/injection, schedule: Q07DX005 (ip), vehicle: saline with Tween-80", "result": "66 % of control"}]}, {"smiles": "O=c1[nH]c(=O)n([C@H]2CCCO2)cc1F", "values": [{"measurement": "T/C", "setting": "[1]", "result": "100 % of control"}, {"measurement": "T/C", "setting": "endpoint: median tumor weight (est.), dose: 20.0 mg/kg/injection, schedule: Q07DX005 (ip), vehicle: Klucel (hydroxypropylcellulose) (HPC)", "result": "82 % of control"}, {"measurement": "T/C", "setting": "endpoint: median tumor weight (est.), dose: 40.0 mg/kg/injection, schedule: Q07DX005 (ip), vehicle: Klucel (hydroxypropylcellulose) (HPC)", "result": "97 % of control"}, {"measurement": "T/C", "setting": "[2]", "result": "102 % of control"}, {"measurement": "T/C", "setting": "[3]", "result": "84 % of control"}, {"measurement": "T/C", "setting": "endpoint: median tumor weight (est.), dose: 160.0 mg/kg/injection, schedule: Q07DX005 (ip), vehicle: Klucel (hydroxypropylcellulose) (HPC)", "result": "91 % of control"}, {"measurement": "T/C", "setting": "[4]", "result": "95 % of control"}, {"measurement": "T/C", "setting": "endpoint: median tumor weight (est.), dose: 320.0 mg/kg/injection, schedule: Q07DX005 (ip), vehicle: Klucel (hydroxypropylcellulose) (HPC)", "result": "10 % of control"}, {"measurement": "T/C", "setting": "[5]", "result": "4 % of control"}]}, {"smiles": "CCN(CC)CCNc1ccc(CO)c2sc3ccccc3c(=O)c12", "values": [{"measurement": "T/C", "setting": "endpoint: median tumor weight (est.), dose: 6.25 mg/kg/injection, schedule: Q07DX005 (ip), vehicle: water", "result": "62 % of control"}, {"measurement": "T/C", "setting": "endpoint: median tumor weight (est.), dose: 12.5 mg/kg/injection, schedule: Q07DX005 (ip), vehicle: clinical formulation", "result": "120 % of control"}, {"measurement": "T/C", "setting": "endpoint: median tumor weight (est.), dose: 12.5 mg/kg/injection, schedule: Q07DX005 (ip), vehicle: water", "result": "67 % of control"}, {"measurement": "T/C", "setting": "endpoint: median tumor weight (est.), dose: 25.0 mg/kg/injection, schedule: Q07DX005 (ip), vehicle: clinical formulation", "result": "82 % of control"}, {"measurement": "T/C", "setting": "endpoint: median tumor weight (est.), dose: 25.0 mg/kg/injection, schedule: Q07DX005 (ip), vehicle: water", "result": "51 % of control"}, {"measurement": "T/C", "setting": "endpoint: median tumor weight (est.), dose: 50.0 mg/kg/injection, schedule: Q07DX005 (ip), vehicle: clinical formulation", "result": "53 % of control"}, {"measurement": "T/C", "setting": "endpoint: median tumor weight (est.), dose: 50.0 mg/kg/injection, schedule: Q07DX005 (ip), vehicle: water", "result": "39 % of control"}, {"measurement": "T/C", "setting": "endpoint: median tumor weight (est.), dose: 100.0 mg/kg/injection, schedule: Q07DX005 (ip), vehicle: clinical formulation", "result": "17 % of control"}, {"measurement": "T/C", "setting": "endpoint: median tumor weight (est.), dose: 100.0 mg/kg/injection, schedule: Q07DX005 (ip), vehicle: water", "result": "3 % of control"}]}, {"smiles": "C=C1C(C)C2C(Cc3ccccc3)NC(=O)C23C(OC(C)=O)/C=C/C(C)(O)CC(C)C/C=C/C3C1O", "note": "(stereo not given)", "values": [{"measurement": "T/C", "setting": "endpoint: median tumor weight change, dose: 7.5 mg/kg/injection, schedule: Q01DX001 (ip), vehicle: Klucel (hydroxypropylcellulose) (HPC)", "result": "61 % of control and 66 % of control"}]}]}
